How the values were obtained:
Format in all cases: biochemical
recombinant GTase A42 = target: T1, recombinant GTase A42 (Arabidopsis thaliana, UniProt O23401); assay: Specific activity of recombinant GTase producing glucose ester against lignin precursors (HPLC); conditions: 0.5 ml of potential substrates, 5 mM UDPG, 0.2 μg GTase, 200 μl, 20° C., 30 min
T1 construct: made in house; host or cells: E. coli
T1 sequence (O23401 1-479): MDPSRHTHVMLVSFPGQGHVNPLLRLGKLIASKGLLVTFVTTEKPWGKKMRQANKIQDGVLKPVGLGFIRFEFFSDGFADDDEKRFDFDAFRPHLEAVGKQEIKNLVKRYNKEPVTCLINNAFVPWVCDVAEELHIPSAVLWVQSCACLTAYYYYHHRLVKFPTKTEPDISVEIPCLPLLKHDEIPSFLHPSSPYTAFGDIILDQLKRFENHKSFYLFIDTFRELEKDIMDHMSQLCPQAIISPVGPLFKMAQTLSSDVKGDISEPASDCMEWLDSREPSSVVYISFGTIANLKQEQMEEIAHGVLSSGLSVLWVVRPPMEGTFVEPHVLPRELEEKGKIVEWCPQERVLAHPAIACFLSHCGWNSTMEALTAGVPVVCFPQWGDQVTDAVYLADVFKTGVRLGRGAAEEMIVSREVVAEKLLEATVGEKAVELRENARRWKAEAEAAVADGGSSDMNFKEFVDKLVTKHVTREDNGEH

recombinant GTase A43 = target: T2, recombinant GTase A43 (Arabidopsis thaliana, UniProt O23402); assay: as above; conditions: 0.5 ml of potential substrates, 5 mM UDPG, 0.2 μg GTase, 200 μl, 20° C., 30 min
T2 construct: made in house; host or cells: E. coli

recombinant GTase A062 = target: T3, recombinant GTase A062 (Arabidopsis thaliana, UniProt Q9LR44); assay: as above; conditions: 0.5 ml of potential substrates, 5 mM UDPG, 0.2 μg GTase, 200 μl, 20° C., 30 min
T3 construct: made in house; host or cells: E. coli
T3 sequence (Q9LR44 1-469): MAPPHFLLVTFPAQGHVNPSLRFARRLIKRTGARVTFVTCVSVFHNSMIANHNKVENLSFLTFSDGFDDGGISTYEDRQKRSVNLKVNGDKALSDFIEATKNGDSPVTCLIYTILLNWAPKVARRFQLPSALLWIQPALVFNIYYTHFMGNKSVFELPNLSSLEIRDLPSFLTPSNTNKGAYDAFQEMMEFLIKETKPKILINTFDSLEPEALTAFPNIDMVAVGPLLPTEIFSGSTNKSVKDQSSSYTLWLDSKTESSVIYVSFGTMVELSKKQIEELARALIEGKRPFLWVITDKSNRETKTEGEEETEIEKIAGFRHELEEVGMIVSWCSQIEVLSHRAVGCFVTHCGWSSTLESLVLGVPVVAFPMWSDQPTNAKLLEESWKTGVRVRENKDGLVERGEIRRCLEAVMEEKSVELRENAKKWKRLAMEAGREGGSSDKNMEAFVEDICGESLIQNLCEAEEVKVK

recombinant GTase A233 = target: T4, recombinant GTase A233 (Arabidopsis thaliana, UniProt Q8W491); assay: Specific activity of recombinant GTase producing O-glucosides against lignin precursors (HPLC); conditions: 30° C.; ND = not detected
T4 construct: made in house; host or cells: E. coli

recombinant GTase A407 = target: T5, recombinant GTase A407 (Arabidopsis thaliana, UniProt O81498); assay: as above; conditions: 30° C.; ND = not detected
T5 construct: made in house; host or cells: E. coli
T5 sequence (O81498 1-481): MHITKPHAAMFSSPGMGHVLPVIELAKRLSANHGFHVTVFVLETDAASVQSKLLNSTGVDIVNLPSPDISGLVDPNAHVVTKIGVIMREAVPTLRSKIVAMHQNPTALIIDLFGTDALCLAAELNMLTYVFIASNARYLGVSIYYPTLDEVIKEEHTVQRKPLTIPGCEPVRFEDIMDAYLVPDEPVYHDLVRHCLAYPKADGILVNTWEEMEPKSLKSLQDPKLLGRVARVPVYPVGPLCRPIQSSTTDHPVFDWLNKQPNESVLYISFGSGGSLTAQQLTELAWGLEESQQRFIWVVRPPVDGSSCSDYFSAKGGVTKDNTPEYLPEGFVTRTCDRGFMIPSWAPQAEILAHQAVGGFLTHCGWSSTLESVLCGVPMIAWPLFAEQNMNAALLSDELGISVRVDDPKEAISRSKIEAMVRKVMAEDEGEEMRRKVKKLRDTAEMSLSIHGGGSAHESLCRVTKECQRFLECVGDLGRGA

UGT71C1 = target: T6, UGT71C1 (Arabidopsis thaliana, UniProt O82381); assay: UGT71C1 glucosyltransferase specific activity towards phenolic compounds (reverse-phase HPLC); conditions: 1 mM phenolic compound, 5 mM UDP-glucose, 50 mM TRIS-HCl pH 7.0, 30° C., 30 min; mean of three replicates ± standard deviation
T6 construct: GST (N); made in house; host or cells: E. coli
T6 sequence (O82381 1-481): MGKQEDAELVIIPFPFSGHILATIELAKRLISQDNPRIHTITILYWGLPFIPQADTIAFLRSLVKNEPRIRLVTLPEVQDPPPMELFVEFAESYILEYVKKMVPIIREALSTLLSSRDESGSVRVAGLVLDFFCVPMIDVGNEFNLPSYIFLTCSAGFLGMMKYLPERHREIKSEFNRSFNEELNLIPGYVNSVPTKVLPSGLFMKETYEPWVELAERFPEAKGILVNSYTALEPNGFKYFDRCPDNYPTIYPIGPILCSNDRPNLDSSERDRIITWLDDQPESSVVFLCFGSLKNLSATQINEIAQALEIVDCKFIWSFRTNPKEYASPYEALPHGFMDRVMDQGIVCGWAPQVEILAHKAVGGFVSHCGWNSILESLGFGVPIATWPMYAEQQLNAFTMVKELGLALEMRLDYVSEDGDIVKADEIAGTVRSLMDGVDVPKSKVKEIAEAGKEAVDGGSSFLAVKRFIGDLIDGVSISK

recombinant GTase A911 = target: T7, recombinant GTase A911 (Arabidopsis thaliana, UniProt O22182); assay: Specific activity of recombinant GTase producing glucose ester against lignin precursors (HPLC); parameters: made in house; host or cells: E. coli; conditions: 0.5 ml of potential substrates, 5 mM UDPG, 0.2 μg GTase, 200 μl, 20° C., 30 min
T7 sequence (O22182 1-456): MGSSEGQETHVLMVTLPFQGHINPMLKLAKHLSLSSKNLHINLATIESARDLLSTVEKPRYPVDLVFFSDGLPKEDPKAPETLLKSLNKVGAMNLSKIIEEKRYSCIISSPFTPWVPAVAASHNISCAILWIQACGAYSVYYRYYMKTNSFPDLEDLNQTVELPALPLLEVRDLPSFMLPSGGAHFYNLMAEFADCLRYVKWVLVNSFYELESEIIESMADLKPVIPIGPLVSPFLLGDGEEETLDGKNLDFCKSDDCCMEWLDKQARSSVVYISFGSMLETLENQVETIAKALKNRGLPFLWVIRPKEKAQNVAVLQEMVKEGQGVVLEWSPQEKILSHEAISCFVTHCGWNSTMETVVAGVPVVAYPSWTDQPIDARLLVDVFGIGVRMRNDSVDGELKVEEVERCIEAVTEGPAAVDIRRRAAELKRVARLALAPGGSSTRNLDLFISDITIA

Q: For `COc1cc(/C=C/C(=O)O)ccc1O` [Ferulic acid, ferulic acid], which “Specific activity of A42 (substrate converted to glucose ester)” value (recombinant GTase A42) is on record?
A: 15.63 nkat/mg

Q: What about the “Specific activity of A43 (substrate converted to glucose ester)” value (recombinant GTase A43) of the same compound?
A: 0.04 nkat/mg

Q: And the “Specific activity of A062 (substrate converted to glucose ester)” value (recombinant GTase A062)?
A: 0.08 nkat/mg

Q: What about the “Specific activity of A233 (substrate converted to 4-O-glucoside)” value (recombinant GTase A233) of the same compound?
A: 0.37 nkat/mg

Q: And the “Specific activity of A407 (substrate converted to 4-O-glucoside)” value (recombinant GTase A407)?
A: 0.25 nkat/mg

Q: What about the “Specific activity (UGT71C1)” value (UGT71C1) of the same compound?
A: 0 nkat/mg

Q: And the “Specific activity of A911 (substrate converted to glucose ester)” value (recombinant GTase A911)?
A: 2.88 nkat/mg

Q: Which results are given for `O=C(O)/C=C/c1ccc(O)cc1` [p-coumaric acid]?
A: Specific activity of A42 (substrate converted to glucose ester) (recombinant GTase A42): 4.69 nkat/mg; Specific activity of A43 (substrate converted to glucose ester) (recombinant GTase A43): 0.03 nkat/mg; Specific activity of A062 (substrate converted to glucose ester) (recombinant GTase A062): 2.54 nkat/mg; Specific activity of A233 (substrate converted to 4-O-glucoside) (recombinant GTase A233): 0.09 nkat/mg; Specific activity of A407 (substrate converted to 4-O-glucoside) (recombinant GTase A407): 0.01 nkat/mg; Specific activity (UGT71C1) (UGT71C1): 0 nkat/mg; Specific activity of A911 (substrate converted to glucose ester) (recombinant GTase A911): 4.31 nkat/mg

Source: patent US7335814B2, “Transgenic cells expressing glucosyltransferase nucleic acids” (The University of York, priority 2000, dated 2008)
